Measured values taken from PMC10257519 (European journal of medicinal chemistry, 2022).
Like-named read-outs stand apart in the source and are kept apart here. Each block holds one compound with its values, some of them ahead of it.

Legend:
NCI 60 cell lines = experiment: NCI 60 cell five-dose assay; format: cell-based; conditions: read-out: TGI (μM)
[1] = system: PARP1 cleavage in HCT116 cells; experiment: Western blot analysis of PARP1 cleavage; format: cell-based, human; conditions: HCT116 cells treated for 24 h
[2] = reported earlier; cited from earlier work
[3] = system: acetyl–H3 and pan acetyl–lysine; experiment: Hyperacetylation assay by Western blot; format: cell-based, human; conditions: 5 and 10 μM
[4] = system: human retinal pigment epithelial RPE cells; experiment: Cell viability assay on normal cells; conditions: at a maximum concentration of 30 μM
[5] = system: HCT116 human colon cancer cells; experiment: Cell growth inhibition / viability assay
[6] = S9 fraction metabolic stability assay; format: in vitro ADME, human; conditions: 0.02 mM substrate, NADPH, 37 °C, monitored over 2 h
[7] = Homo sapiens, HCT-116, read-out: IC50 ± SD (μM) (n = 3) on HCT116 cell line

Compound: O=C(CCCCCCNC(=O)C(O)(O)C(F)(F)F)Nc1ncc(-c2ccccc2)s1 [Compound 58, N-(5-phenylthiazol-2-yl)-7-(3,3,3-trifluoro-2,2-dihydroxypropanamido)heptanamide]
IC (TGI) (NCI 60 cell lines): 17 µM

Compound: O=C(CCCCCCNC(=O)C(O)(O)C(F)(F)F)Nc1ncc(-c2ccc(Br)cc2)s1 [Compound 85, N-(5-(4-bromophenyl)thiazol-2-yl)-7-(3,3,3-trifluoro-2,2-dihydroxypropanamido)heptanamide]
cleaved PARP1 (Western blot) [1]: Dose-dependent elevation

Compound: O=C(CCCCCCC(=O)C(F)(F)F)Nc1ccccc1 [Compound 91]
half-life [2]: less than 30 min

Compound: COc1ccc(-c2cnc(NC(=O)CCCCCCNC(=O)C(O)(O)C(F)(F)F)s2)cc1 [Compound 84, N-(5-(4-methoxyphenyl)thiazol-2-yl)-7-(3,3,3-trifluoro-2,2-dihydroxypropanamido)heptanamide]
cleaved PARP1 (Western blot) [1]: Absence of PARP1 cleavage
levels of acetylated H3 (Western blot) [3]: increased levels
levels of pan-acetyl-lysine (Western blot) [3]: increased levels

Compound: COc1ccc(NC(=O)CCCCCCNC(=O)C(O)(O)C(F)(F)F)cc1 [Compound 55, N-(4-methoxyphenyl)-7-(3,3,3-trifluoro-2,2-dihydroxypropanamido)heptanamide]
cell survival, RPE [4]: more than 50%

Compound: COc1ccc2sc(NC(=O)CCCCCCNC(=O)C(O)(O)C(F)(F)F)nc2c1 [Compound 83, N-(5-methoxybenzo[d]thiazol-2-yl)-7-(3,3,3-trifluoro-2,2-dihydroxypropanamido)heptanamide]
cleaved PARP1 (Western blot) [1]: Dose-dependent elevation

Compound: N-phenyl-6-(3,3,3-trifluoro-2,2-dihydroxypropanamido)hexanamide [Compound 10b]
IC50 ([5]; read-out: IC50 (μM) HCT116, effect of linker length, linker length n = 3–7): 54.4 ± 6.02 µM

HCT116 IC50 ([5]; zinc-binding group screening, maximum concentration of 100 μM): inactive
Compound: OC(O)(c1c(F)c(F)c(-n2cc(-c3ccccc3)nn2)c(F)c1F)C(F)(F)F [Compound 89]

disappearance of the M+1 peak in S9 fraction [6]: did not disappear over 2 h
Compound: O=C(CCCCCCNC(=O)C(O)(O)C(F)(F)F)Nc1nccs1 [Compound 60, N-(thiazol-2-yl)-7-(3,3,3-trifluoro-2,2-dihydroxypropanamido) heptanamide]

IC50 [5, 7]: 7.56 ± 0.73 µM
Compound: O=C(CCCCCCNC(=O)C(O)(O)C(F)(F)F)Nc1nc2ccc(Br)cc2o1 [Compound 80, N-(6-bromobenzo[d]oxazol-2-yl)-7-(3,3,3-trifluoro-2,2-dihydroxypropanamido)heptanamide]

IC50 [5, 7]: 3.45 ± 0.36 µM
Compound: COc1cc(NC(=O)CCCCCCNC(=O)C(O)(O)C(F)(F)F)cc(OC)c1OC [Compound 71, 7-(3,3,3-trifluoro-2,2-dihydroxypropanamido)-N-(3,4,5-trimethoxyphenyl)heptanamide]
